{"source": "patent US8920835B2", "about": "“Paliperidone double-layered osmotic pump controlled release tablet and preparation method thereof” (Shanghai Institute of Materia Medica, Chinese Academy of …, priority 2009, dated 2014)", "origin": "cited, not measured here", "key": {"[1]": {"conditions": "in vivo"}}, "data": [{"smiles": "Cc1nc2n(c(=O)c1CCN1CCC(c3noc4cc(F)ccc34)CC1)CCCC2O", "note": "(stereo not drawn) [Paliperidone]", "values": [{"measurement": "apparent volume of distribution", "setting": "[1]", "result": 487, "unit": "L"}, {"measurement": "half-life of the terminal elimination phase", "setting": "[1]", "result": "about 23 h"}, {"measurement": "plasma protein binding rate", "result": 74, "unit": "%"}]}]}
